Values of other authors, collected in publication PMC10343475, “Systematic Modification of the Substitution Pattern of the 7-Hydroxy-5-oxopyrazolo[4,3-b]pyridine-6-carboxamide Scaffold Enabled the Discovery of New Ligands with High Affinity and Selectivity for the Cannabinoid Type 2 Receptor” (Molecules, 2023).

Biological target: human CB2 receptor (Homo sapiens, UniProt P34972)
Conditions: Figure 1, earlier ligands of the group; cited from earlier work

human CB2 receptor, sequence (P34972 whole entry): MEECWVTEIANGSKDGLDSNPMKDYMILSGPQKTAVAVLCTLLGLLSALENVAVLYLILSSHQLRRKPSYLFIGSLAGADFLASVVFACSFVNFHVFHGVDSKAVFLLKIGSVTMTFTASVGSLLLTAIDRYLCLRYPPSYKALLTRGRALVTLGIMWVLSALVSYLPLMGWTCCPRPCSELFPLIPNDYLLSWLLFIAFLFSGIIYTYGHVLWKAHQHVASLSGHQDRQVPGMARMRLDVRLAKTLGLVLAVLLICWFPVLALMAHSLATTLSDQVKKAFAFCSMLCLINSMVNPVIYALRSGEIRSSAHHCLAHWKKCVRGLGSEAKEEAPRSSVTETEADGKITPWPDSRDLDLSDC

SMILES: CCCCCn1c(=O)c(C(=O)NC23CC4CC(CC(C4)C2)C3)c(O)c2nn(C)cc21 [Compound 3, reference compound]
- Selectivity Index: 167
